Legend:
bedstraw = assay: Test B pre/postemergence bedstraw; type: in vivo, Galium aparine
Summary of the method: (§1)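 Test chemicals in a non-phytotoxic solvent mixture with surfactant were sprayed preemergence onto planted seeds and postemergence onto plants 2 to 18 cm tall (1- to 4-leaf stage). After twelve to sixteen days in a greenhouse, injury was visually rated against untreated controls from 0 (no effect) to 10 (complete control).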

blackgrass = assay: Test B pre/postemergence blackgrass; type: in vivo, Alopecurus myosuroides
Summary of the method: as §1

surinam grass = assay: Test B pre/postemergence surinam grass; type: in vivo, Brachiaria decumbens
Summary of the method: as §1

cocklebur = assay: Test B pre/postemergence cocklebur; type: in vivo, Xanthium strumarium
Summary of the method: as §1

corn = assay: Test B pre/postemergence corn; type: in vivo, Zea mays
Summary of the method: as §1

crabgrass = assay: Test B pre/postemergence crabgrass; type: in vivo, Digitaria sanguinalis
Summary of the method: as §1

giant foxtail = assay: Test B pre/postemergence giant foxtail; type: in vivo, Setaria faberii
Summary of the method: as §1

morningglory = assay: Test B pre/postemergence morningglory; type: in vivo, Ipomoea hederacea
Summary of the method: as §1

pigweed = assay: Test B pre/postemergence pigweed; type: in vivo, Amaranthus retroflexus
Summary of the method: as §1

rape = assay: Test B pre/postemergence rape; type: in vivo, Brassica napus
Summary of the method: as §1

soybean = assay: Test B pre/postemergence soybean; type: in vivo, Glycine max
Summary of the method: as §1

sugar beet = assay: Test B pre/postemergence sugar beet; type: in vivo, Beta vulgaris
Summary of the method: as §1

velvetleaf = assay: Test B pre/postemergence velvetleaf; type: in vivo, Abutilon theophrasti
Summary of the method: as §1

wheat = assay: Test B pre/postemergence wheat; type: in vivo, Triticum aestivum
Summary of the method: as §1

wild oat = assay: Test B pre/postemergence wild oat; type: in vivo, Avena fatua
Summary of the method: as §1

purple nutsedge = assay: Test B pre/postemergence purple nutsedge; type: in vivo, Cyperus rotundus
Summary of the method: as §1

[1] = Postemergence, Rate 125 g/ha, scale of 0 to 10 where 0 is no effect and 10 is complete control
[2] = Preemergence, Rate 62 g/ha, scale of 0 to 10 where 0 is no effect and 10 is complete control
[3] = Preemergence, Rate 125 g/ha, 0 is no effect, 10 is complete control
[4] = Preemergence, Rate 250 g/ha, scale 0 to 10, 0 is no effect, 10 is complete control
[5] = Preemergence, Rate 500 g/ha, scale 0 to 10 (0 no effect, 10 complete control)
[6] = Rate 62 g/ha, Postemergence, scale of 0 to 10 where 0 is no effect and 10 is complete control
[7] = Rate 250 g/ha, Postemergence, scale 0 to 10, 0 is no effect, 10 is complete control
[8] = Rate 500 g/ha, Postemergence, scale 0 to 10

Cc1ccccc1-n1c(=O)on(C(=O)N(c2ccc(Br)cc2)C(C)C)c1=O [Compound 175]
9: Bedstraw plant response rating (bedstraw; [4]) | Bedstraw plant response rating (bedstraw; [5])
5: Crabgrass plant response rating (crabgrass; [2]) | Giant foxtail plant response rating (giant foxtail; [2])
3: Cocklebur plant response rating (cocklebur; [8]) | Plant response rating, Morningglory (morningglory; [7]) | Plant response rating, Velvetleaf (velvetleaf; [7]) | Velvetleaf plant response rating (velvetleaf; [8]) | Wheat plant response rating (wheat; [8]) | Nutsedge plant response rating (purple nutsedge; [4]) | Nutsedge plant response rating (purple nutsedge; [5])
0: Bedstraw plant response rating (bedstraw; [1]) | Bedstraw plant response rating (bedstraw; [2]) | Bedstraw plant response rating (bedstraw; [6]) | Plant response rating, Bedstraw (bedstraw; [7]) | Bedstraw plant response rating (bedstraw; [8]) | Blackgrass plant response rating (blackgrass; [1]) | Blackgrass plant response rating (blackgrass; [2]) | Blackgrass plant response rating (0 to 10 scale) (blackgrass; [3]) | Blackgrass plant response rating (blackgrass; [4]) | Blackgrass plant response rating (blackgrass; [5]) | Blackgrass plant response rating (blackgrass; [6]) | Plant response rating, Blackgrass (blackgrass; [7]) | Blackgrass plant response rating (blackgrass; [8]) | B. signalgrass plant response rating (surinam grass; [1]) | B. signalgrass plant response rating (surinam grass; [2]) | B. signalgrass plant response rating (0 to 10 scale) (surinam grass; [3]) | B. signalgrass plant response rating (surinam grass; [4]) | B. signalgrass plant response rating (surinam grass; [5]) | B. signalgrass plant response rating (surinam grass; [6]) | Plant response rating, B. signalgrass (surinam grass; [7]) | B. signalgrass plant response rating (surinam grass; Rate 500 g/ha, Postemergence, scale 0 to 10, 0 no effect, 10 complete control) | Cocklebur plant response rating (cocklebur; [1]) | Cocklebur plant response rating (cocklebur; [2]) | Cocklebur plant response rating (0 to 10 scale) (cocklebur; [3]) | Cocklebur plant response rating (cocklebur; [4]) | Cocklebur plant response rating (cocklebur; [5]) | Cocklebur plant response rating (cocklebur; [6]) | Corn plant response rating (corn; [1]) | Corn plant response rating (corn; [2]) | Corn plant response rating (0 to 10 scale) (corn; [3]) | Corn plant response rating (corn; [4]) | Corn plant response rating (corn; [5]) | Corn plant response rating (corn; [6]) | Plant response rating, Corn (corn; [7]) | Corn plant response rating (corn; [8]) | Crabgrass plant response rating (crabgrass; [1]) | Crabgrass plant response rating (crabgrass; [6]) | Plant response rating, Crabgrass (crabgrass; [7]) | Crabgrass plant response rating (crabgrass; [8]) | Giant foxtail plant response rating (giant foxtail; [1]) | Giant foxtail plant response rating (giant foxtail; [6]) | Plant response rating, Giant foxtail (giant foxtail; [7]) | Giant foxtail plant response rating (giant foxtail; [8]) | Morningglory plant response rating (morningglory; [2]) | Morningglory plant response rating (0 to 10 scale) (morningglory; [3]) | Morningglory plant response rating (morningglory; [4]) | Morningglory plant response rating (morningglory; [5]) | Redroot pigweed plant response rating (pigweed; [1]) | Redroot pigweed plant response rating (pigweed; [2]) | Redroot pigweed plant response rating (0 to 10 scale) (pigweed; [3]) | Redroot pigweed plant response rating (pigweed; [4]) | Redroot pigweed plant response rating (pigweed; [5]) | Redroot pigweed plant response rating (pigweed; [6]) | Plant response rating, Redroot pigweed (pigweed; [7]) | Redroot pigweed plant response rating (pigweed; [8]) | Rape plant response rating (rape; [1]) | Rape plant response rating (rape; [2]) | Rape plant response rating (0 to 10 scale) (rape; [3]) | Rape plant response rating (rape; [4]) | Rape plant response rating (rape; [5]) | Rape plant response rating (rape; [6]) | Plant response rating, Rape (rape; [7]) | Rape plant response rating (rape; [8]) | Soybean plant response rating (soybean; [2]) | Soybean plant response rating (0 to 10 scale) (soybean; [3]) | Soybean plant response rating (soybean; [4]) | Soybean plant response rating (soybean; [5]) | Sugarbeets plant response rating (sugar beet; [1]) | Sugarbeets plant response rating (sugar beet; [2]) | Sugarbeets plant response rating (0 to 10 scale) (sugar beet; [3]) | Sugarbeets plant response rating (sugar beet; [4]) | Sugarbeets plant response rating (sugar beet; [5]) | Sugarbeets plant response rating (sugar beet; [6]) | Plant response rating, Sugarbeets (sugar beet; [7]) | Sugarbeets plant response rating (sugar beet; [8]) | Velvetleaf plant response rating (velvetleaf; [2]) | Velvetleaf plant response rating (0 to 10 scale) (velvetleaf; [3]) | Velvetleaf plant response rating (velvetleaf; [4]) | Velvetleaf plant response rating (velvetleaf; [5]) | Wheat plant response rating (wheat; [2]) | Wheat plant response rating (0 to 10 scale) (wheat; [3]) | Wheat plant response rating (wheat; [4]) | Wheat plant response rating (wheat; [5]) | Plant response rating, Wheat (wheat; [7]) | Wild oats plant response rating (wild oat; [2]) | Wild oats plant response rating (0 to 10 scale) (wild oat; [3]) | Wild oats plant response rating (wild oat; [4]) | Wild oats plant response rating (wild oat; [5]) | Plant response rating, Wild oats (wild oat; [7]) | Wild oats plant response rating (wild oat; [8]) | Nutsedge plant response rating (purple nutsedge; [1]) | Nutsedge plant response rating (purple nutsedge; [2]) | Nutsedge plant response rating (0 to 10 scale) (purple nutsedge; [3]) | Nutsedge plant response rating (purple nutsedge; [6]) | Plant response rating, Nutsedge (purple nutsedge; [7]) | Nutsedge plant response rating (purple nutsedge; [8])
2: Bedstraw plant response rating (0 to 10 scale) (bedstraw; [3]) | Plant response rating, Cocklebur (cocklebur; [7])
6: Crabgrass plant response rating (0 to 10 scale) (crabgrass; [3]) | Crabgrass plant response rating (crabgrass; [4])
4: Morningglory plant response rating (morningglory; [8])
7: Giant foxtail plant response rating (0 to 10 scale) (giant foxtail; [3])
8: Crabgrass plant response rating (crabgrass; [5]) | Giant foxtail plant response rating (giant foxtail; [4]) | Giant foxtail plant response rating (giant foxtail; [5])
1: Morningglory plant response rating (morningglory; [1]) | Morningglory plant response rating (morningglory; [6]) | Soybean plant response rating (soybean; [1]) | Soybean plant response rating (soybean; [6]) | Plant response rating, Soybean (soybean; [7]) | Soybean plant response rating (soybean; [8])

From patent publication US6737383B1, “Herbicidal oxadiazolidines” (priority 1999, dated 2004)
